Data on 18 molecules can be found in patent publication US9084420B2, “Amide derivative, pest control agent containing the amide derivative, and pest controlling method” (Mitsui Chemicals Agro, Inc., priority 2008, dated 2015).

One experiment concerns Spodoptera litura. Nature of the experiment: Pesticidal test against Spodoptera litura (cabbage leaf immersion). Type of experiment: in vivo. As to conditions: 144 h, 2-stage larvae on treated cabbage leaf, 25° C., after 6 days, read-out: pesticidal rate. How it is done: Pesticidal Test Against Spodoptera litura A piece of a cabbage leaf was immersed for 30 seconds in a chemical solution in which a test compound had been diluted at a predetermined concentration, and air-dried, and then put into a 7 cm polyethylene cup having a filter paper laid on the bottom thereof, and 2-stage larvae of Spodoptera litura were released. They were left to stand in a thermostatic chamber at 25° C., and the numbers of the living pests and the dead pests were examined after 6 days. The test was carried out with five larvae per group in two replicates.

A further experiment relates to Plutella xylostella. Nature of the experiment: Pesticidal test against Plutella xylostella (cabbage leaf immersion). As to conditions: 144 h, 3-stage larvae on treated cabbage leaf, 25° C., after 6 days, read-out: pesticidal rate. Type of experiment: in vivo. How it is done: Pesticidal Test Against Plutella xylostella A piece of a cabbage leaf was immersed for 30 seconds in a chemical solution in which a test compound had been diluted at a predetermined concentration, and air-dried, and then put into a 7 cm polyethylene cup having a filter paper laid on the bottom thereof, and 3-stage larvae of Plutella xylostella were released. They were left to stand in a thermostatic chamber at 25° C., and the numbers of the living pests and the dead pests were examined after 6 days. The test was carried out with five larvae per group in two replicates.

Structures can show the parent of a compound that is named as a salt.

`Cc1cc(C(F)(C(F)(F)F)C(F)(F)F)cc(C)c1N(CC(=O)O)C(=O)c1cccc(N(C)C(=O)c2ccccc2)c1F` [7-222, 2-(N-(2,6-dimethyl-4-(perfluoropropan-2-yl)phenyl)-2-fluoro-3-(N-methylbenzamide)benzamide)acetic acid]: the pest or weed control at 100 ppm in the experiment with Spodoptera litura and with Plutella xylostella was no less than 70% throughout.

Turning to `COC(=O)CCN(C(=O)c1ccccc1)c1cccc(C(=O)Nc2c(C)cc(C(F)(C(F)(F)F)C(F)(F)F)cc2C)c1` [5-1, methyl 3-(N-(3-(2,6-dimethyl-4-(perfluoropropan-2-yl)phenylcarbamoyl)phenyl)benzamide)propanoate], the pest or weed control at 100 ppm with Spodoptera litura and in the experiment with Plutella xylostella was no less than 70% throughout.

With `Cc1cc(C(F)(C(F)(F)F)C(F)(F)F)cc(C)c1N(C)C(=O)c1cccc(N(CCO)C(=O)c2ccccc2)c1` [5-35, N-(2,6-dimethyl-4-(perfluoropropan-2-yl)phenyl)-3-(N-(2-hydroxyethyl)benzamide)-N-methylbenzamide], the pest or weed control at 100 ppm in the experiment with Spodoptera litura and in the experiment with Plutella xylostella was no less than 70% in each case.

In the case of `Cc1cc(C(F)(C(F)(F)F)C(F)(F)F)cc(C)c1N(C)C(=O)c1cccc(N(CCS(C)(=O)=O)C(=O)c2ccccc2)c1` [5-73, N-(2,6-dimethyl-4-(perfluoropropan-2-yl)phenyl)-N-methyl-3-(N-(2-(methylsulfonyl)ethyl)benzamide)benzamide], the pest or weed control at 100 ppm in the experiment with Spodoptera litura and with Plutella xylostella was no less than 70% in each case.

For `Cc1cc(C(F)(C(F)(F)F)C(F)(F)F)cc(C)c1NC(=O)c1cccc(N(CCC(=O)OCC(N)C(=O)O)C(=O)c2ccccc2)c1` (stereo not drawn) [5-25, 2-amino-3-(3-(N-(3-(2,6-dimethyl-4-(perfluoropropan-2-yl)phenylcarbamoyl)phenyl)benzamide)propanoyloxy)propanoic acid hydrochloric acid salt], the pest or weed control at 100 ppm in the experiment on Spodoptera litura and in the experiment with Plutella xylostella was no less than 70% throughout.

As for `Cc1cc(C(F)(C(F)(F)F)C(F)(F)F)cc(C)c1N(C)C(=O)c1cccc(N(C[S+](C)[O-])C(=O)c2ccccc2)c1` (stereo not drawn) [6-7, N-(2,6-dimethyl-4-(perfluoropropan-2-yl)phenyl)-N-methyl-3-(N-(methylsulfinylmethyl)benzamide)benzamide], the pest or weed control at 100 ppm with Spodoptera litura and with Plutella xylostella was no less than 70% throughout.

As to `N#Cc1ccc(C(=O)N(CCC(=O)NCC(N)=O)c2cccc(C(=O)Nc3c(Br)cc(C(F)(C(F)(F)F)C(F)(F)F)cc3Br)c2F)cc1` [5-31, 3-(N-(3-(2-amino-2-oxoethylamino)-3-oxopropyl)-4-cyanobenzamide)-N-(2,6-dibromo-4-(perfluoropropan-2-yl)phenyl)-2-fluorobenzamide], the pest or weed control at 100 ppm with Spodoptera litura and in the experiment on Plutella xylostella was no less than 70% each time.

Take `Cc1cc(C(F)(C(F)(F)F)C(F)(F)F)cc(C)c1NC(=O)c1cccc(N(CCC(=O)NCCCC(NC(=O)OC(C)(C)C)C(=O)OC(C)(C)C)C(=O)c2ccccc2)c1` (stereo not drawn) [5-15, tert-butyl 2-(3-(2,6-dimethyl-4-(perfluoropropan-2-yl)phenylcarbamoyl)phenyl)-14,14-dimethyl-1,5,12-trioxo-1-phenyl-13-oxa-2,6,11-triazapentadecane-10-carboxylate]: the pest or weed control at 100 ppm in the experiment with Spodoptera litura and in the experiment on Plutella xylostella was no less than 70% each time.

For `Cc1cc(C(F)(C(F)(F)F)C(F)(F)F)cc(C)c1N(C)C(=O)c1cccc(N(CC[S+](C)[O-])C(=O)c2ccccc2)c1` (stereo not drawn) [5-72, N-(2,6-dimethyl-4-(perfluoropropan-2-yl)phenyl)-N-methyl-3-(N-(2-(methylsulfinyl)ethyl)benzamide)benzamide], the pest or weed control at 100 ppm with Spodoptera litura and with Plutella xylostella was no less than 70% each time.

`Cc1cc(C(F)(C(F)(F)F)C(F)(F)F)cc(C)c1N(CC(N)=O)C(=O)c1cccc(N(C)C(=O)c2ccccc2)c1F` [7-220, N-(2-amino-2-oxoethyl)-N-(2,6-dimethyl-4-(perfluoropropan-2-yl)phenyl)-2-fluoro-3-(N-methylbenzamide)benzamide]: the pest or weed control at 100 ppm in the experiment on Spodoptera litura and in the experiment with Plutella xylostella was no less than 70% throughout.

For the molecule `COC(=O)CN(C(=O)c1ccccc1)c1cccc(C(=O)N(C)c2c(C)cc(C(F)(C(F)(F)F)C(F)(F)F)cc2C)c1` [6-1, methyl 2-(N-(3((2,6-dimethyl-4-(perfluoropropan-2-yl)phenyl)(methyl)carbamoyl)phenyl)benzamide)acetate], the pest or weed control at 100 ppm in the experiment with Spodoptera litura and in the experiment on Plutella xylostella was no less than 70% in each case.

For the molecule `CNC(=O)NCCCN(C(=O)c1ccccc1)c1cccc(C(=O)Nc2c(C)cc(C(F)(C(F)(F)F)C(F)(F)F)cc2C)c1` [6-49, N-(3-(2,6-dimethyl-4-(perfluoropropan-2-yl)phenylcarbamoyl)phenyl)-N-(3-(3-methylureido)propyl)benzamide], the pest or weed control at 100 ppm in the experiment on Spodoptera litura and in the experiment on Plutella xylostella was no less than 70% throughout.

`Cc1cc(C(F)(C(F)(F)F)C(F)(F)F)cc(C)c1NC(=O)c1cccc(N(CCC(=O)NN)C(=O)c2ccc(C#N)cc2)c1F` [5-83, 3-(4-cyano-N-(3-hydrazinyl-3-oxopropyl)benzamide)-N-(2,6-dimethyl-4-(perfluoropropan-2-yl)phenyl)-2-fluorobenzamide]: the pest or weed control at 100 ppm with Spodoptera litura and with Plutella xylostella was no less than 70% throughout.

Regarding `Cc1cc(C(F)(C(F)(F)F)C(F)(F)F)cc(C)c1N(CCC(N)=O)C(=O)c1cccc(NC(=O)c2ccccc2)c1` [7-1, N-(3-amino-3-oxopropyl)-3-benzamide-N-(2,6-dimethyl-4-(perfluoropropan-2-yl)phenyl)benzamide], the pest or weed control at 100 ppm in the experiment with Spodoptera litura and in the experiment on Plutella xylostella was no less than 70% each time.

In the case of `Cc1cc(C(F)(C(F)(F)F)C(F)(F)F)cc(C)c1N(C)C(=O)c1cccc(N(CC(N)=O)C(=O)c2ccccc2)c1` [6-12, 3-(N-(2-amino-2-oxoethyl)benzamide)-N-(2,6-dimethyl-4-(perfluoropropan-2-yl)phenyl)-N-methylbenzamide], the pest or weed control at 100 ppm in the experiment on Spodoptera litura and in the experiment with Plutella xylostella was no less than 70% throughout.

Regarding `Cc1cc(C(F)(C(F)(F)F)C(F)(F)F)cc(C)c1N(C)C(=O)c1cccc(N(CC#N)C(=O)c2ccccc2)c1` [6-18, 3-(N-(cyanomethyl)benzamide)-N-(2,6-dimethyl-4-(perfluoropropan-2-yl)phenyl)-N-methylbenzamide], the pest or weed control at 100 ppm in the experiment on Spodoptera litura and with Plutella xylostella was no less than 70% in each case.

For `Cc1cc(C(F)(C(F)(F)F)C(F)(F)F)cc(C)c1NC(=O)c1cccc(N(CC=O)C(=O)c2ccccc2)c1` [6-59, N-(3-(2,6-dimethyl-4-(perfluoropropan-2-yl)phenylcarbamoyl)phenyl)-N-(2-oxoethyl)benzamide], the pest or weed control at 100 ppm in the experiment on Spodoptera litura and in the experiment on Plutella xylostella was no less than 70% each time.

Consider `Cc1cc(C(F)(C(F)(F)F)C(F)(F)F)cc(C)c1N(C)C(=O)c1cccc(N(CCCC(N)=O)C(=O)c2ccccc2)c1` [6-15, 3-(N-(4-amino-4-oxobutyl)benzamide)-N-(2,6-dimethyl-4-(perfluoropropan-2-yl)phenyl)-N-methylbenzamide], for which the pest or weed control at 100 ppm with Spodoptera litura and in the experiment on Plutella xylostella was no less than 70% each time.
